Assay results reported in the supplement of paper PMC5844555.

How the values were obtained:
Assay in all cases: 3' UTR reporter interaction score (median-centred robust z-score of log2 firefly/Renilla activity); higher = less repression of the 3' UTR reporter
Conditions in all cases: HEK293T; 48 h
[1] = tested on: PHF6
How it was run: (§1)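 In at least two independent screens, HEK293T cells in 96-well plates (10,000/well) were co-transfected with DharmaFECT Duo using 100 ng firefly luc2P reporter with the gene's 3' UTR, 20 ng Renilla pRL-TK control and 2.5 pmol miRNA mimic, and dual-luciferase activities were read at 48 h. The interaction score, averaged across screens, is the per-plate robust z-score (median, median absolute deviation) of the log firefly/Renilla ratio, median-centred per miRNA, with more negative indicating interaction.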

[2] = tested on: BRCA2
How it was run: as §1

[3] = tested on: FBXW7
How it was run: as §1

[4] = tested on: EZH2
How it was run: as §1

[5] = tested on: MYC
How it was run: as §1

[6] = tested on: NOTCH1
How it was run: as §1

[7] = tested on: ZEB2
How it was run: as §1

[8] = tested on: RB1
How it was run: as §1

[9] = tested on: PHOX2B
How it was run: as §1

[10] = tested on: MYB
How it was run: as §1

[11] = tested on: MYT1L
How it was run: as §1

[12] = tested on: HRAS
How it was run: as §1

[13] = tested on: TP53
How it was run: as §1

[14] = tested on: MYCN
How it was run: as §1

Sequence | 3' UTR reporter interaction score [1] | 3' UTR reporter interaction score [2] | 3' UTR reporter interaction score [3] | 3' UTR reporter interaction score [4] | 3' UTR reporter interaction score [5] | 3' UTR reporter interaction score [6] | 3' UTR reporter interaction score [7] | 3' UTR reporter interaction score [8] | 3' UTR reporter interaction score [9] | 3' UTR reporter interaction score [10] | 3' UTR reporter interaction score [11] | 3' UTR reporter interaction score [12] | 3' UTR reporter interaction score [13] | 3' UTR reporter interaction score [14]
UGAGGUAGUAGGUUGUGUGGUU | 0.852 | 1.21 | 0.642 | -3.63 | -4.84 | -0.305 | -1.14 | 1.01e-16 | 0.11 | 0.859 | 0.566 | 0.13 | 0.495 | -4.48
UGAGGUAGUAGUUUGUACAGU | -0.221 | 0.445 | -0.143 | -4.15 | -2.59 | 0.637 | -1.5 | 0.426 | 0.114 | 0.441 | 0.517 | 1.06 | 0.627 | -3.87
UGAGGUAGUAGUUUGUGCUGU | 0.213 | 0.294 | 0.144 | -4.28 | -3 | -0.444 | 0.496 | 0.903 | -1.23 | 1.1 | 0.99 | 1.26 | 0.534 | -3.97
UGAGUUGGCCAUCUGAGUGAG | 2.42 | -0.135 | -0.251 | 0.24 | -0.317 | 1.03 | 0.14 | 0.000132 | -3.59 | 0.927 | 2.61 | -0.0567 | -0.988 | -3.35
UGAUAUGUUUGAUAUAUUAGGU | -0.754 | -2.64 | 0.769 | -0.107 | 0.0447 | 0.183 | -0.629 | -0.392 | 0.239 | -0.701 | 0.136 | -0.158 | 0.331 | 0.278
UGAUUGGUACGUCUGUGGGUAGA | -0.0836 | -0.144 | -0.747 | -0.0408 | -2.85 | -4.51 | -0.485 | 0.153 | -0.434 | 1.17 | 0.161 | 0.535 | 0.443 | 0.569
UGAUUGUCCAAACGCAAUUCU | 1.16 | 0.855 | -0.0252 | -0.465 | -2.91 | 0.81 | 0.494 | 0.331 | 0.249 | 0.183 | -0.829 | 0.277 | -0.447 | 0.178
UGCACCAUGGUUGUCUGAGCAUG | 0.727 | 0.899 | -1.84 | 0.00438 | -0.0708 | -0.682 | -1.45 | 0.168 | -1.01 | 0.379 | 0.0254 | -0.315 | 0.617 | -5.44
UGCCUGGGUCUCUGGCCUGCGCGU | 0.782 | -0.375 | -2.61 | -0.794 | 0.101 | 0.3 | 0.387 | -2.47 | -0.846 | 0.325 | -0.227 | -1.95 | 0.35 | -0.0821
UGCUGACUCCUAGUCCAGGGC | 1.06 | -3.34 | 0.322 | 0.906 | 0.54 | -0.364 | -1.99 | 2.05 | -0.537 | 0.123 | 0.333 | -1.77 | 0.366 | 0.0884
UGCUUCCUUUCAGAGGGU | -0.232 | -0.366 | 0.46 | 0.85 | 0.327 | 0.215 | -0.357 | -0.583 | -0.331 | 1.13 | 0.521 | -0.697 | -1.13 | 0.0627
UGGAAGACUAGUGAUUUUGUUG | 0.207 | -0.32 | -0.892 | 0.509 | -0.317 | -0.0478 | -0.874 | 0.176 | 0.182 | 0.454 | -1.31 | 0.856 | -1.48 | 0.44
UGGAAUGUAAAGAAGUAUGUA | 0.925 | 0.327 | -2.71 | -0.314 | 0.479 | -0.912 | 0.551 | 0.684 | 0.106 | 0.679 | -0.17 | 1.1 | -1.46 | -0.505
UGGAAUGUAAGGAAGUGUGUGG | 2.43 | -0.366 | -0.356 | 0.341 | 0.26 | -0.967 | 2.54 | 1.33 | 0.446 | -0.696 | 0.351 | 0.0317 | -1.12 | -2.18
UGGACGGAGAACUGAUAAGGGU | 0.399 | 0.362 | 0.0713 | -0.0404 | -0.199 | -0.401 | 0.823 | -0.376 | -1.18 | 0.576 | 0.408 | -0.151 | 0.461 | -0.133
UGGAGAGAAAGGCAGUUC | -0.104 | -0.859 | -1.52 | -0.838 | 0.053 | -0.015 | 1.17 | -0.051 | -0.292 | 0.823 | 0.463 | -0.0201 | -1.31 | 0.412
UGGAGGAGAAGGAAGGUGAUG | -0.248 | -2.61 | -0.125 | -2.61 | -2.42 | -0.968 | 3.77 | 1.82 | 2.06 | 1.88 | 2.74 | -0.351 | -0.557 | 0.481
UGGCAGUGUAUUGUUAGCUGGU | -3.24 | 0.888 | 0.551 | -0.805 | -2.6 | -4.47 | 0.089 | -0.641 | -0.186 | -4.53 | -0.141 | 1.02 | 0.314 | -4.71
UGGCAGUGUCUUAGCUGGUUGUU | -0.889 | 0.486 | -0.0417 | 0.955 | -0.668 | -3.59 | 0.283 | -0.641 | -0.535 | -2.9 | 1.45 | 1.33 | 1.68 | -3.64
